Read-outs that look alike come from different tables or passages of the source. Marks after values point to notes of the source that are not given here.
What was measured:
[1] = system: unsegmented patient populations; conditions: cited from earlier work
[2] = system: Caucasian schizophrenia patients; assay: CATIE: time to discontinuation for all causes by SULT4A1-1 status; format: in vivo, human
Text: The primary endpoint for the CATIE study was time to discontinuation for all causes (Lieberman et al., 2005). Thus the inventors evaluated the effect of SULT41-1 status on this important parameter.

schizophrenia patients [3] = system: schizophrenia patients
Text: For the analyses shown in Tables 22-24, SULT4A1-1 haplotype status was assigned as describe in Example 3, and standard statistical survival analysis using Cox's proportional hazards model was used to determine the relative risk (hazard) of discontinuing drug use. The Hazard Ratio (HR) measures the risk of an event (in this case, switching or discontinuation from the drug) relative to patient exposure or status (in this case, SULT4A1-1 positive status).
As describe in Example 11, Hazard Ratio (HR) measures the risk of an event (in this case, switching or discontinuation from the drug) relative to patient exposure or status (in this case, SULT4A1-1 status).

[4] = system: Caucasian schizophrenia patients; assay: CATIE: hospitalization due to exacerbation of psychosis by SULT4A1-1 status; format: in vivo, human
Text: To assess if SULT4A1-1 status impacts the risk of hospitalization in Caucasians, the inventors assigned SULT4A1-1 status to each CATIE subject and evaluated hospitalization events due to exacerbation of psychosis. For this analysis, the inventors assigned a dichotomous value (positive or negative) for hospitalization status to subjects in each phase of the trial based on only the first hospitalization event for a given patient in that phase. Patients participating in Phases 1, 2, and/or 3 were included in the totals for the appropriate drug.
A Kaplan-Meier survival analysis was performed to determine whether there was a difference between the survival (hospitalization) rates for the SULT4A1-1 negative and SULT4A1-1 positive patient populations treated with each of the atypical antipsychotics. Survival plots model the fraction of the population that survived (i.e., no hospitalization event) as a function of time.

schizophrenia patients [5] = conditions: Phase II; for Responders: decrease PANSS ≧20%, LOCF
[6] = system: African American schizophrenia patients; assay: CATIE: change in total PANSS (LOCF) by SULT4A1-1 haplotype status, African Americans; format: in vivo, human; conditions: for Number of individuals with change in total PANSS ≦−20% (responders) / Number of individuals with change in total PANSS ≧−20% (non-responders): LOCF
Experimental: The design of the CATIE study has been described in detail by others (Lieberman et al., 2005; Stroup et al., 2003). […] A total of 738 subjects consented to provide DNA for genetic study. […] Retrospective genetic analyses, judged to be exempt from human studies requirements by an IRB, were conducted in the current study. All tested patients were studied using well established clinical endpoints comparing baseline, intermediate, and last observation carried forward (LOCF) for the PANSS scores using CATIE data. […] To remove time on drug as a variable for the CATIE trial, analysis was limited to only those patients who were randomized to a different drug following the initial washout period (drug switchers).

schizophrenia patients [7] = assay: CATIE: months of successful treatment measured by the CGI scale (TMSUCC1); format: in vivo, human
Text: The CATIE clinical data set included Clinical Global Impression (CGI) Scale, an observer-provided assessment of the psychiatric health of the patient (Stroup et al., 2003; Guy 1976). Patients are rated with the CGI Scale from 1 to 7, with higher scores indicating greater severity of illness. The CATIE study provided a response variable that measured the time (in months) of successful treatment as measured by the CGI scale (“TMSUCC1” in the CATIE data).

[8] = SULT4A1-1 negative risperidone / SULT4A1-1 negative all other drugs
[9] = Unsegmented risperidone / Unsegmented all other drugs

Cc1nc2n(c(=O)c1CCN1CCC(c3noc4cc(F)ccc34)CC1)CCCC2 [Risperidone]
Effect Size vs. FGA ([1]; first generation antipsychotics, Davis et al. (2003)): −0.25 | Effect Size vs. Placebo ([1]; meta-analysis, Leucht et al. (2009), negative = greater reduction in PANSS): −0.59 | Mean difference in total PANSS score between olanzapine and labelled drug, Meta-analysis ([1]; unsegmented populations, Leucht et al. (2009)): −1.9 | Time to discontinuation, mean ([2]; SULT4A1-1 negative): 11.3 Months | Time to discontinuation, mean ([2]; SULT4A1-1 positive): 8.0*** Months | HR, all-cause discontinuation (schizophrenia patients [3]; [8]): 0.79^a | HR, discontinuation due to lack of efficacy (schizophrenia patients [3]; [8]): 0.88^a | HR, all-cause discontinuation (schizophrenia patients [3]; SULT4A1-1 positive risperidone / SULT4A1-1 positive all other drugs): 1.48^a | HR, all-cause discontinuation (schizophrenia patients [3]; [9]): 0.91^a | HR, discontinuation due to lack of efficacy (schizophrenia patients [3]; [9]): 1.09^a | HOSP, number of patients hospitalized ([4]; SULT4A1-1 negative): 16 | HOSP, rate of hospitalization ([4]; SULT4A1-1 negative): 13% | HOSP, number of patients hospitalized ([4]; SULT4A1-1 positive): 4 | HOSP, rate of hospitalization ([4]; SULT4A1-1 positive): 11.1% | HOSP, rate of hospitalization ([4]; Unsegmented): 12.6% | HOSP, number of patients hospitalized ([4]; Unsegmented, Phases 1, 2 and/or 3, first event): 20 | Kaplan-Meier: difference between survival (no hospitalization) rates of SULT4A1-1 negative and positive patients ([4]; per drug): not statistically significant | % Responders (schizophrenia patients [5]; SULT4A1-1 Negative): 33.3% | Nonresponders (schizophrenia patients [5]; SULT4A1-1 Negative): 8 | Responders (schizophrenia patients [5]; SULT4A1-1 Negative): 4 | % Responders (schizophrenia patients [5]; SULT4A1-1 Positive): 0% | Nonresponders (schizophrenia patients [5]; SULT4A1-1 Positive): 1 | Responders (schizophrenia patients [5]; SULT4A1-1 Positive): 0 | Number of individuals with change in total PANSS ≦−20% (responders) ([6]; SULT4A1-1 negative): 7 | Number of individuals with change in total PANSS ≧−20% (non-responders) ([6]; SULT4A1-1 negative): 34 | Responders ([6]; SULT4A1-1 positive): 60% | Number of individuals with change in total PANSS ≦−20% (responders) ([6]; SULT4A1-1 positive): 3 | Number of individuals with change in total PANSS ≧−20% (non-responders) ([6]; SULT4A1-1 positive): 2 | Length of successful treatment (CGI Months), Mean (schizophrenia patients [7]; SULT4A1-1 negative): 6.88 Months | Length of successful treatment (CGI Months), Mean (schizophrenia patients [7]; SULT4A1-1 positive): 1.76 Months | Length of successful treatment (CGI Months), Mean (schizophrenia patients [7]; Unsegmented): 5.79 Months
